Data from patent publication US6936591B2, “Amorphous 9-deoxo-9a-aza-9a-methyl-9a-homoerythromycin A, process for preparing the same, and uses thereof” (Pliva Pharmaceutical Industry, Incorporated, priority 2002, dated 2005).

Columns and labels:
Type in all cases: physicochemical
[1] = Intrinsic dissolution rate (IDR), Intrinsic Dissolution Tester, Van Kel Type; conditions: medium of pH 6 and 37° C.
Description: The intrinsic dissolution rates (IDR) for the new amorphous 9-deoxo-9a-aza-9a-methyl-9a-homoerythromycin A prepared according to the procedure of Example 11, and the commercial 9-deoxo-9a-aza-9a-methyl-9a-homoerythromycin A dihydrate, in medium of pH 6 and 37° C., were determined by Intrinsic Dissolution Tester, Van Kel Type. The IDR for the new amorphous 9-deoxo-9a-aza-9a-methyl-9a-homoerythromycin A was about […], about […] higher than the IDR of the prior art, i.e. 9-deoxo-9a-aza-9a-methyl-9a-homoerythromycin A dihydrate (about 1.8 mg min^−1cm^−2).

[2] = Dissolution profiles, USP Method 2, dissolved content by HPLC
Description: For comparison, new pseudopolymorph Ic as prepared by the procedure in Example 3 above and new amorphous 9-deoxo-9a-aza-9a-methyl-9a-homoerythromycin A as prepared by the procedure in Example 11 above were used. The comparative dissolution profiles were determined by USP Method 2, PharmaTest Dissolution Tester, PTW SII; and the content of dissolved 9-deoxo-9a-aza-9a-methyl-9a-homoerythromycin A was measured by HPLC. The data thus obtained are set forth in Table 2 below, and plotted in FIGS. 8 (pH 3) and 9 (pH 6).

[3] = Hygroscopicity and stability at normal storage conditions

## CC[C@H]1OC(=O)[C@H](C)[C@@H](O[C@H]2C[C@@](C)(OC)[C@@H](O)[C@H](C)O2)C(C)[C@@H](O[C@@H]2O[C@H](C)C[C@H](N(C)C)[C@H]2O)[C@](C)(O)C[C@@H](C)CN(C)[C@H](C)[C@@H](O)[C@]1(C)O (stereo partly drawn) [9-deoxo-9a-aza-9a-methyl-9a-homoerythromycin A dihydrate, reference compound]
[1]; dihydrate
  Intrinsic dissolution rate (IDR): about 1.8 mg min^−1 cm^−2
[2]; pH 3, 37° C., 5 minutes, dihydrate
  Percent dissolved: 3.9%
[2]; pH 3, 37° C., 10 minutes, dihydrate
  Percent dissolved: 8.1%
[2]; pH 3, 37° C., 20 minutes, dihydrate
  Percent dissolved: 14.6%
[2]; pH 3, 37° C., 45 minutes, dihydrate
  Percent dissolved: 26.7%
[2]; pH 3, 37° C., 60 minutes, dihydrate
  Percent dissolved: 33.3%
[2]; pH 6, 37° C., 5 minutes, dihydrate
  Percent dissolved: 14.5%
[2]; pH 6, 37° C., 10 minutes, dihydrate
  Percent dissolved: 27.3%
[2]; pH 6, 37° C., 20 minutes, dihydrate
  Percent dissolved: 44.2%
[2]; pH 6, 37° C., 45 minutes, dihydrate
  Percent dissolved: 69.1%
[2]; pH 6, 37° C., 60 minutes, dihydrate
  Percent dissolved: 73.7%

## CC[C@H]1OC(=O)[C@H](C)[C@@H](O[C@H]2C[C@@](C)(OC)[C@@H](O)[C@H](C)O2)C(C)[C@@H](O[C@@H]2O[C@H](C)C[C@H](N(C)C)[C@H]2O)[C@](C)(O)C[C@@H](C)CN(C)[C@H](C)[C@@H](O)[C@]1(C)O (stereo partly drawn) [Example 11, 9-deoxo-9a-aza-9a-methyl-9a-homoerythromycin A]
[1]
  Intrinsic dissolution rate (IDR): about 2.79 mg min^−1 cm^−2
[1]; relative to commercial dihydrate
  IDR higher than the IDR of the dihydrate: about 40%
[2]; compared with the dihydrate
  Specific dissolution rate as compared with the dihydrate: significantly better
[2]; pH 3, 37° C., 5 minutes
  Percent dissolved: 14.3%
[2]; pH 3, 37° C., 10 minutes
  Percent dissolved: 26.5%
[2]; pH 3, 37° C., 20 minutes
  Percent dissolved: 50.5%
[2]; pH 3, 37° C., 45 minutes
  Percent dissolved: 85.8%
[2]; pH 3, 37° C., 60 minutes
  Percent dissolved: 89.5%
[2]; pH 6, 37° C., 5 minutes
  Percent dissolved: 78.5%
[2]; pH 6, 37° C., 10 minutes
  Percent dissolved: 97.5%
[2]; pH 6, 37° C., 20 minutes
  Percent dissolved: 98.7%
[2]; pH 6, 37° C., 45 minutes
  Percent dissolved: 96.7%
[2]; pH 6, 37° C., 60 minutes
  Percent dissolved: 95.1%
[3]
  Hygroscopicity: not hygroscopic
[3]; normal storage conditions
  Stability (chemical stability and stability of the "crystal" form): stable

## CC[C@H]1OC(=O)[C@H](C)[C@@H](O[C@H]2C[C@@](C)(OC)[C@@H](O)[C@H](C)O2)[C@H](C)[C@@H](O[C@@H]2O[C@H](C)C[C@H](N(C)C)[C@H]2O)[C@](C)(O)C[C@@H](C)CN(C)[C@H](C)[C@@H](O)[C@]1(C)O [Ic, 9-deoxo-9a-aza-9a-methyl-9a-homoerythromycin A]
[2]; pH 3, 37° C., 5 minutes
  Percent dissolved: 12.3%
[2]; pH 3, 37° C., 10 minutes
  Percent dissolved: 29.4%
[2]; pH 3, 37° C., 20 minutes
  Percent dissolved: 52.5%
[2]; pH 3, 37° C., 45 minutes
  Percent dissolved: 92.2%
[2]; pH 3, 37° C., 60 minutes
  Percent dissolved: 93.2%
[2]; pH 6, 37° C., 5 minutes
  Percent dissolved: 74.0%
[2]; pH 6, 37° C., 10 minutes
  Percent dissolved: 98.8%
[2]; pH 6, 37° C., 20 minutes
  Percent dissolved: 98.6%
[2]; pH 6, 37° C., 45 minutes
  Percent dissolved: 95.3%
[2]; pH 6, 37° C., 60 minutes
  Percent dissolved: 94.6%
